The results in this text go back to patent US11578125B2, “Anti-thyroid hormone (T4) recombinant antibody or antigen binding fragment” (Teknologian tutkimuskeskus VTT Oy, priority 2018, dated 2023).

One experiment relates to anti-T4 Fab. Nature of the experiment: competitive ELISA, T4-BSA coated wells, 0.25 nM anti-T4 Fab pre-incubated with analyte. It is filed as binding, mouse. The conditions noted are these: for IC50: by ELISA assay, read-out: relative IC50. How it is done:
Microtiter plate wells (Nunc, 436023) were coated with 100 μl of 4 μg/ml T4-BSA (Fitzgerald, 80-IT50) in PBS (15 mM phosphate, 150 mM NaCl, pH 7.3) for one hour at +37° C. with 600 rpm shaking. Wells were then washed three times with 300 μl PBS supplemented with 0.05% (v/v) Tween20 (Sigma-Aldrich, 93773-250G). Wells were blocked with 200 μl of Superblock® (Thermo Fisher Scientific, 37516) for 30 minutes in room temperature with 600 rpm shaking and washed as above. 100 μl of pre-incubated mixtures, containing 0.25 nM anti-T4 Fab and varying concentrations of L-thyroxine (T4) (Sigma-Aldrich, T2376) in PBSP (GE Healthcare, 28-9950-84) supplemented with 1% DMSO (v/v) (Sigma-Aldrich, D5879-100ML), were transferred to wells and incubated for 30 minutes with 600 rpm shaking in room temperature. Each sample had 12 replicates. Wells were washed as above and 100 μl of Goat anti-mouse Kappa-HRP (SoutherBiotech, 1050-05) diluted 1:1000 in Superblock was transferred to wells and incubation was carried out for 30 minutes at 600 rpm shaking in room temperature. Wells were washed as above and 100 μl of TMB Microwell Peroxidase Substrate System (2-C) (SeraCare, 50-76-00) was transferred to wells and enzymatic reaction was carried out for 30 minutes with 600 rpm shaking in room temperature. Reactions were stopped by transferring 100 μl of 1 M H3PO4 to the wells and measured at A450 using Varioskan (Thermo Fisher Scientific). Data was analysed with OriginPro 2017-software.
Assay was performed as in the previous paragraph (under title L-Thyroxine) except instead of T4 (Thyroxine) TIBPA (Tetraiodobisphenol A) was used.
Assay was performed as in the paragraph under title L-Thyroxine except instead of T4 (Thyroxine) TBBPA (Tetrabromobisphenol A) was used.
Assay was performed as in the paragraph under title L-Thyroxine except instead of T4 (Thyroxine) TCBPA (Tetrachlorobisphenol A) was used.
Assay was performed as in the paragraph under title L-Thyroxine except instead of T4 (Thyroxine) BPA (Bisphenol A) was used.

The target in the next experiment is anti-T4 Fab fragment. Nature of the experiment: SPR (BIAcore T200) inhibition assay, immobilized T4-AP, affinity and specificity determination. The conditions noted are these: 2 nM anti-T4 Fab preincubated with analyte, T4-AP on CM5 chip, 2% DMSO-PBSP, triplicates. It is filed as binding, mouse. The protocol:
T4-alkaline phosphatase was immobilized to the sensor surface and Kd values were determined by inhibition assay method.
T4-AP and AP (P5931, Sigma-Aldrich, St. Louis, Mo., USA), were diluted to 100 μg/mL concentration in 10 mM sodium acetate pH 4.0 (BR100351, GE Healthcare, Piscataway, N.J., USA). T4-AP and AP were immobilized to preconditioned CM5 chip using EDC/NHS—chemistry following manufacturer's instructions. Concentration of anti-T4 Fab fragment was calculated using theoretical extinction coefficient (ExPASy ProtParam tool, web.expasy.org/protparam) of the anti-T4 Fab fragment and by measuring the A280 with NanoDrop 2000c instrument (Thermo Disher Scientific, Waltham, Mass., USA). […] Flowrate was set to 30 μl/min in all cycle steps.
Preincubated mixtures were injected over the sensor chip surface for seven minutes and dissociated for 30 seconds. […] Data collection point was set to be 10 seconds after the start of dissociation phase. All sample series were run as triplicates, where a single sample series consisted from growing small molecule concentration in the preincubation mixture. Data was reference and blank subtracted. In addition, small differences in DMSO between the samples were compensated using DMSO solvent correction series, as recommended by instrument manufacturer GE Healthcare). Concentrations of free anti-T4 Fab fragments remaining in the preincubated mixtures were calculated by comparing the obtained responses against standard curve of anti-T4 Fab fragment. Affinity constants were calculated using BIAcore T200 Evaluation Software (GE Healthcare, Piscataway, N.J., USA) applying four-parameter logistic function. (See FIGS. 4A and B and Table 1.)

Consider `CC(C)(c1ccc(O)cc1)c1ccc(O)cc1` [BPA, Bisphenol A], for which the “competition in competitive ELISA assay” value in the experiment on anti-T4 Fab (high concentration (5 μM)) is “No competition was observed”. Moreover, the “KD, anti-T4 Fab” value on anti-T4 Fab fragment is recorded as “no binding”. For `N[C@@H](Cc1ccc(Oc2ccc(O)cc2)cc1)C(=O)O` [Compound T0], the “KD, anti-T4 Fab” value at anti-T4 Fab fragment is “no binding”. Consider `N[C@@H](Cc1cc(I)c(Oc2cc(I)c(O)c(I)c2)c(I)c1)C(=O)O` [Compound T4, 3,5,3′,5′-tetraiodothyronine], for which the IC50 with anti-T4 Fab amounted to 0.54 nM. This compound also returned a Kd on anti-T4 Fab fragment of 0.53 nM. On the same counts, the results for `CC(C)(c1cc(Br)c(O)c(Br)c1)c1cc(Br)c(O)c(Br)c1` [TBBPA, Tetrabromobisphenol A] are 74 nM and 69.2 nM. For `CC(C)(c1cc(Cl)c(O)c(Cl)c1)c1cc(Cl)c(O)c(Cl)c1` [TCBPA, Tetrachlorobisphenol A], in that order: 544 nM and 558 nM. Consider `CC(C)(c1cc(I)c(O)c(I)c1)c1cc(I)c(O)c(I)c1` [TIBPA, Tetraiodobisphenol A], for which the IC50 in the experiment on anti-T4 Fab stood at 54 nM. Further, binding on anti-T4 Fab fragment was characterised by a dissociation constant (Kd) of 37.3 nM.

What is called IC50 is the concentration needed to halve the response being measured. The Kd is the free concentration of one partner at which half of the binding sites on the other are occupied at equilibrium, for simple one-to-one binding. A low value points to tighter binding.
